# From patent publication US10793561B2, “1,8-naphthyridinone compounds and uses thereof” (NUVATION BIO INC., priority 2017, dated 2020)
# What was measured:
# [1] = biological target: T1, adenosine A2A receptor (Homo sapiens (Human), UniProt P29274); assay: Radioligand binding competition assay, adenosine A2A receptor; settings: for inhibition at 0.3 µM: read-out: A2a binding % inh @ 300 nM
# Protocol: Binding of selected compounds to the adenosine A1, A2A, A2B, and A3 receptors was tested using a binding competition assay.
# The general protocol for the radioligand binding competition assay was as follows. Competition binding was performed in duplicate in the wells of a 96 well plate (Master Block, Greiner, 786201) containing binding buffer (optimized for each receptor), membrane extracts (amount of protein/well optimized for each receptor), radiotracer (final concentration optimized for each receptor), and test compound. Nonspecific binding was determined by co-incubation with 200-fold excess of cold competitor. The samples were incubated in a final volume of 0.1 mL at 25° C. for 60 minutes and then filtered over filter plates. Filters were washed six times with 0.5 mL of ice-cold washing buffer (optimized for each receptor) and 50 μL of Microscint 20 (Packard) were added on each filter. The filter plates were sealed, incubated 15 min on an orbital shaker and scintillation counted with a TopCount for 30 sec/filter.
# For the adenosine A2A receptor radioligand binding assay, the following modifications were made to the general protocol. GF/C filters (Perkin Elmer, 6005174), presoaked in 0.01% Brij for 2 h at room temperature were used. Filters were washed six times with 0.5 mL of ice-cold washing buffer (50 mM Tris pH 7.4) and 50 μL of Microscint 20 (Packard) was added in each well. The plates were then incubated for 15 min on an orbital shaker and then counted with a TopCount™ for 1 min/well.
# Another radioligand binding assay was used to evaluate the binding affinity for the adenosine A2A receptor assay was performed in duplicate in the wells of a 384 plate. Assay buffer contained DPBS 500 mM, MgCl2 0.1 mM, and 1% DMSO. Membrane-bead suspension was prepared by mixing 25.98 μL of human adenosine A2A membrane preparation (Perkin Elmer, RBHA2AM400UA) at 33.4 pg/mL, 28 μL of ADA at 20 pg/mL, and 932 μL of SPA beads at 3.33 mg/mL) and incubated the mixture for 20 min at room temperature. Mixed 20 μL of radiotracer (^3H-SCH 58261) at 15 nM to each well containing test articles at various concentrations and centrifuge the plate at 1000 rpm for 1 minute. Added 30 μL of the membrane-bead suspension to each well. Sealed the plates and incubated for 1 hr at room temperature with vigorous mixing on a plate mixer. Plates were read on Microbeta^2 (Perkin Elmer, 2450-0010).
# CHO-K1-A3 cell membranes, 1.5 μg/well; a binding buffer comprising HEPES 25 mM pH 7.4, MgCl2 5 mM, CaCl2 1 mM, 0.5% BSA; a wash buffer comprising HEPES 25 mM pH 7.4, MgCl2 5 mM, CaCl2 1 mM; a Unifilter GF/C—treated for 2 h with 0.5% BS; and 0.4 nM of ^125I-AB-MECA as the tracer. The results of the binding assay are shown in Table B1-1 and are shown as percent residual binding at a given concentration. Percent of residual binding means binding of a compound in the presence of competitor normalized to the amount of binding in the absence of competitor. […] For example, compound 1 strongly bound to A2A (30% residual binding at a concentration of 100 nM), A1 (−3% residual binding at 300 nM) and A2B, (−9% residual binding at 300 nM) but weakly bound to A3 (96% residual binding at 300 nM).
# [2] = biological target: T1, adenosine A2A receptor; assay: cAMP assay in HEK-293 cells expressing human recombinant adenosine A2A receptor; format: cell-based; settings: for inhibition at 0.1 µM: HEK293, 100 nM compound, read-out: A2a cAMP % inh @ 100 nM; for IC50: second cAMP table
# Protocol: The functional activity of compounds was tested using one of the two assays to detect the present of cAMP. Activation of G-protein coupled receptors (such as A2A) results in activation of adenylcyclase which converts ATP into cAMP which is used as a downstream signaling molecule. Therefore, molecules which act as GPCR (or specifically A2A receptor) antagonists cause a decrease in intracellular cAMP concentration.
# Both assays used HEK-293 cells expressing human recombinant adenosine A2A receptor were grown prior to the test in media without antibiotic. Assay 1: The cells were detached by gentle flushing with PBS-EDTA (5 mM EDTA), recovered by centrifugation and suspended in assay buffer (KRH: 5 mM KCl, 1.25 mM MgSO4, 124 mM NaCl, 25 mM HEPES, 13.3 mM Glucose, 1.25 mM KH2PO4, 1.45 mM CaCl2, 0.5 g/L BSA, supplemented with Rolipram).
# 12 μL of cells were mixed with 6 μL of the test compound at increasing concentrations and then incubated for 10 min. Thereafter 6 μL of the reference agonist was added at a final concentration corresponding to the historical EC80. The plates were then incubated for 30 min at room temperature. After addition of the lysis buffer and 1 hour incubation, cAMP concentrations were estimated, according to the manufacturer specification, with the HTRF® kit.
# Assay 2: 100 nL of test articles at 100× of final concentration were transferred to assay plate by Echo. Cells were washed twice with 5 mL of PBS […]. After aspirating the PBS and adding 1.5 mL versine, cells were incubated at 37° C. for 2-5 min. After centrifugation, 4 mL of medium was added and adjusted cell density to 5,000 cells/well with stimulation buffer. 10 μL of cells were aliquoted to the assay plate, centrifuged at 1000 rpm for 1 minute, and incubated for 60 minutes at room temperature. 5 μL 4× Eu-cAMP tracer solution and 5 μL 4× Ulight™-anti-cAMP solution were added to assay plate, followed by centrifugation and 60-minute incubation at room temperature. Plates were read on EnVision.
# T1 sequence (P29274 whole entry): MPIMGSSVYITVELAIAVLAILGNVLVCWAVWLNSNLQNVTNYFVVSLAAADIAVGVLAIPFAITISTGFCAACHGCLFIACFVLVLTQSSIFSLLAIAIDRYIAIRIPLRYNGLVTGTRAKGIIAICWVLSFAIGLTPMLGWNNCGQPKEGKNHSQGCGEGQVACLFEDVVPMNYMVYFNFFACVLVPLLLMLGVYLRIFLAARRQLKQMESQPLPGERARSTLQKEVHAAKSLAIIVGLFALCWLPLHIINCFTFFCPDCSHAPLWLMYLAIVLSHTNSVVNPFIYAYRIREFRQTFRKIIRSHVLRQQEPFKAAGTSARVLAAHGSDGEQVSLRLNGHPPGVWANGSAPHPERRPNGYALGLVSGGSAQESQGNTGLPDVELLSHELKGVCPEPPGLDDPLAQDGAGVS
SMILES,A2A radioligand binding competition assay % residual binding @ 3000 nM ([1]; 3000 nM compound),inhibition at 0.1 µM [2],further results
"O=c1cc[nH]c2nc(-c3ccccc3)c(-c3cnc4ncccc4c3)cc12 [Compound No. 1.11, 2-phenyl-[3,3′-bi(1,8-naphthyridin)]-5(8H)-one]",51/ND/ND/ND %,49%,
"O=c1cc[nH]c2nc(-n3cccn3)c(-c3ccc4ncccc4c3)cc12 [Compound No. 1.100, 7-(1H-pyrazol-1-yl)-6-(quinolin-6-yl)-1,8-naphthyridin-4(1H)-one]",,,"inhibition at 3 µM ([1]; 3000 nM compound, read-out: A2a binding % inh @ 3000 nM): 78%; IC50 [2]: 3220 nM"
"O=c1cc[nH]c2nc(-c3ccccc3)c(-c3cc(Cl)c4[nH]cnc4c3)cc12 [Compound No. 1.17, 6-(7-chloro-1H-benzo[d]imidazol-5-yl)-7-phenyl-1,8-naphthyridin-4(1H)-one]",14/ND/ND/ND %,85%,
"O=c1ccc2cc(-c3ccc4ncccc4c3)c(-c3ccccc3)nc2[nH]1 [1.4, 7-phenyl-6-(quinolin-6-yl)-1,8-naphthyridin-2(1H)-one]",19%,82%,A2A radioligand binding competition assay % residual binding @ 100 nM ([1]; 100 nM compound): 71%; A2A radioligand binding competition assay % residual binding @ 300 nM ([1]; 300 nM compound): 79%; A2A radioligand binding competition assay % residual binding @ 1000 nM ([1]; 1000 nM compound): 17%
"O=c1cc[nH]c2nc(-c3ccccc3)c(-c3cccc(Cl)c3)cc12 [Compound No. 1.30, 6-(3-chlorophenyl)-7-phenyl-1,8-naphthyridin-4(1H)-one]",,,inhibition at 0.3 µM ([1]; 300 nM compound): 0%
"O=c1ccc2cc(-c3ccc4[nH]c(=O)[nH]c4c3)c(-c3ccccc3)nc2[nH]1 [Compound No. 1.32, 6-(2-oxo-2,3-dihydro-1H-benzo[d]imidazol-5-yl)-7-phenyl-1,8-naphthyridin-2(1H)-one]",,,inhibition at 0.3 µM ([1]; 300 nM compound): 0%
"Cc1ccc(-c2nc3[nH]c(=O)ccc3cc2-c2ccc3ncccc3c2)o1 [Compound No. 1.29, 7-(5-methylfuran-2-yl)-6-(quinolin-6-yl)-1,8-naphthyridin-2(1H)-one]",,77%,
"O=c1ccc2cc(-c3cccc(Cl)c3)c(-c3ccccc3)nc2[nH]1 [Compound No. 1.31, 6-(3-chlorophenyl)-7-phenyl-1,8-naphthyridin-2(1H)-one]",,,inhibition at 0.3 µM ([1]; 300 nM compound): 0%
"Cc1ccn(-c2nc3[nH]ccc(=O)c3cc2-c2ccc3ncccc3c2)n1 [Compound No. 1.92, 7-(3-methyl-1H-pyrazol-1-yl)-6-(quinolin-6-yl)-1,8-naphthyridin-4(1H)-one]",,,IC50 [2]: 357 nM

# Second part, led by results:
A2A radioligand binding competition assay % residual binding @ 3000 nM ([1]; 3000 nM compound),inhibition at 0.1 µM [2],SMILES,further results
14/ND/ND/ND %,100%,"O=c1ccc2cc(-c3cc(Cl)c4ncccc4c3)c(-c3ccccc3)nc2[nH]1 [Compound No. 1.12, 6-(8-chloroquinolin-6-yl)-7-phenyl-1,8-naphthyridin-2 (1H)-one]",
70/ND/ND/ND %,30%,"O=c1cc[nH]c2nc(-c3ccccc3)c(-c3ccc4cnccc4c3)cc12 [Compound No. 1.9, 6-(isoquinolin-6-yl)-7-phenyl-1,8-naphthyridin-4(1H)-one]",
25/ND/ND/ND %,74%,"O=c1ccc2cc(-c3cc(Cl)c4[nH]cnc4c3)c(-c3ccccc3)nc2[nH]1 [Compound No. 1.19, 6-(7-chloro-1H-benzo[d]imidazol-5-yl)-7-phenyl-1,8-naphthyridin-2(1H)-one]",
,64%,"COc1cc(-c2cc3c(=O)cc[nH]c3nc2-c2ccccc2)cc2cccnc12 [Compound No. 1.26, 6-(8-methoxyquinolin-6-yl)-7-phenyl-1,8-naphthyridin-4(1H)-one]",
,46%,"O=c1cc[nH]c2nc(-c3cccnc3)c(-c3ccc4ncccc4c3)cc12 [Compound No. 1.28, 7-(pyridin-3-yl)-6-(quinolin-6-yl)-1,8-naphthyridin-4(1H)-one]",
,88%,"O=c1cc[nH]c2nc(-c3ccco3)c(-c3ccc4[nH]cnc4c3)cc12 [Compound No. 1.27, 6-(1H-benzo[d]imidazol-5-yl)-7-(furan-2-yl)-1,8-naphthyridin-4(1H)-one]",
